The values below come from patent US9062071B2, “Substituted piperidines as HDM2 inhibitors” (Merck Sharp & Dohme Corp, priority 2011, dated 2015).

The experiment has as its target HDM2 protein (Homo sapiens, UniProt Q00987). Kind of experiment: fluorescence polarization screening assay (FP IC50). The experiment is classed as binding. The conditions noted are these: class symbols. The method, then: The compounds were evaluated to determine activity at the HDM2 protein by known methods such as the fluorescence polarization screening assay that measures the inhibitory concentration that achieves 50% of maximal activity (FP IC50) and the dissociation constant for inhibitor binding (FP Ki). [Zhang et al., J. Analytical Biochemistry 331: 138-146 (2004)].
(In fluorescence polarisation assays a small probe gives low polarisation when free and higher when bound to something large.)

SMILES strings stand for the structures.

Sequence of HDM2 protein (Q00987 whole entry): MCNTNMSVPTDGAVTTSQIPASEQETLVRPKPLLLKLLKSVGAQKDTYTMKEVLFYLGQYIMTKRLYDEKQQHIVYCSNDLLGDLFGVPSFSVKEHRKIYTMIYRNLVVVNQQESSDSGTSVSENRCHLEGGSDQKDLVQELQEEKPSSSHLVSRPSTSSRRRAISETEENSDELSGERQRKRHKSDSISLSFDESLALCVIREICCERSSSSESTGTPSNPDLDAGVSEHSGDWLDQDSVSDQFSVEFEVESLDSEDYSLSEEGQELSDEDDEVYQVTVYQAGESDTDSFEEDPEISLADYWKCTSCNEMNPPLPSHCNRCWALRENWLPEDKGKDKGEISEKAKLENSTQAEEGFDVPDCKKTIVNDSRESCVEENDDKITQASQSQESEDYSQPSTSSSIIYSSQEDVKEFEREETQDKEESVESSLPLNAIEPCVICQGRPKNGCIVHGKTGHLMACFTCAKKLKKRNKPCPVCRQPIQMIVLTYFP

Consider `CCC[C@H]1N(C(=O)c2ncccc2C(F)(F)F)CCC[C@@]1(Oc1csc(C(F)(F)F)c1)C(=O)N1Cc2ccc(F)cc2C[C@H]1CCC(C)O` (stereo partly drawn) [Compound A167, 4-[(3R)-6-fluoro-2-{[(2R,3S)-2-propyl-1-{[3-(trifluoromethyl)pyridin-2-yl]carbonyl}-3-{[5-(trifluoromethyl)thiophen-3-yl]oxy}piperidin-3-yl]carbonyl}-1,2,3,4-tetrahydroisoquinolin-3-yl]butan-2-ol], for which the IC50 lay within 0.001 to 0.1 µM.

For `CCC[C@H]1N(C(=O)c2ncccc2C(F)(F)F)CCC[C@@]1(Oc1csc(C(F)(F)F)c1)C(=O)N1CCc2cc(Cl)ccc2[C@H]1CCC(=O)NC#N` [Compound A79, 3-[(1R)-6-chloro-2-{[(2R,3S)-2-propyl-1-{[3-(trifluoromethyl)pyridin-2-yl]carbonyl}-3-{[5-(trifluoromethyl)thiophen-3-yl]oxy}piperidin-3-yl]carbonyl}-1,2,3,4-tetrahydroisoquinolin-1-yl]-N-cyanopropanamide], the IC50 is 0.001 to 0.1 µM.

Turning to `O=C(c1cnccc1C(F)(F)F)N1CCC[C@@](Oc2csc(C(F)(F)F)c2)(C(=O)N2CCc3ccc(Cl)cc3C2)[C@H]1CCN1CCOCC1` [Compound A3, 7-chloro-2-{[(2R,3S)-2-(2-morpholin-4-ylethyl)-1-{[4-(trifluoromethyl)pyridin-3-yl]carbonyl}-3-{[5-(trifluoromethyl)thiophen-3-yl]oxy}piperidin-3-yl]carbonyl}-1,2,3,4-tetrahydroisoquinoline], the IC50 lay within 0.101 to 20 µM.

For `CCC[C@H]1N(C(=O)c2ncccc2C(F)(F)F)CCC[C@@]1(Oc1csc(C(F)(F)F)c1)C(=O)N1CCc2cc(F)ccc2C1CCC(=O)O` (stereo partly drawn) [Compound A39, 3-(6-fluoro-2-{[(2R,3S)-2-propyl-1-{[3-(trifluoromethyl)pyridin-2-yl]carbonyl}-3-{[5-(trifluoromethyl)thiophen-3-yl]oxy}piperidin-3-yl]carbonyl}-1,2,3,4-tetrahydroisoquinolin-1-yl)propanoic acid], the IC50 is 0.001 to 0.1 µM.

For the compound `CCC[C@H]1N(C(=O)c2ncccc2C(F)(F)F)CCC[C@@]1(Oc1csc(C(F)(F)F)c1)C(=O)N1Cc2ccc(F)cc2C[C@H]1CCC(=O)O` [Compound A127, 3-[(3R)-6-fluoro-2-{[(2R,3S)-2-propyl-1-{[3-(trifluoromethyl)pyridin-2-yl]carbonyl}-3-{[5-(trifluoromethyl)thiophen-3-yl]oxy}piperidin-3-yl]carbonyl}-1,2,3,4-tetrahydroisoquinolin-3-yl]propanoic acid], the half-inhibitory concentration (IC50) lay in the range of 0.001 to 0.1 µM.

`CCC[C@H]1N(C(=O)c2ncccc2C(F)(F)F)CCC[C@@]1(Oc1csc(C(F)(F)F)c1)C(=O)N1CCc2cc(Cl)ccc2C1CCCC(=O)O` (stereo partly drawn) [Compound A73, 4-(6-chloro-2-{[(2R,3S)-2-propyl-1-{[3-(trifluoromethyl)pyridin-2-yl]carbonyl}-3-{[5-(trifluoromethyl)thiophen-3-yl]oxy}piperidin-3-yl]carbonyl}-1,2,3,4-tetrahydroisoquinolin-1-yl)butanoic acid] yielded an IC50 of 0.001 to 0.1 µM.

In the case of `CCC[C@H]1N(C(=O)c2ncccc2C(F)(F)F)CCC[C@@]1(Oc1csc(C(F)(F)F)c1)C(=O)N1CCc2cc(Cl)ccc2C1CC(C)(C)C(=O)O` (stereo partly drawn) [Compound A65, 3-(6-chloro-2-{[(2R,3S)-2-propyl-1-{[3-(trifluoromethyl)pyridin-2-yl]carbonyl}-3-{[5-(trifluoromethyl)thiophen-3-yl]oxy}piperidin-3-yl]carbonyl}-1,2,3,4-tetrahydroisoquinolin-1-yl)-2,2-dimethylpropanoic acid], the IC50 lay in the range of 0.001 to 0.1 µM.

`CCC[C@H]1N(C(=O)c2ncccc2C(F)(F)F)CCC[C@@]1(Oc1csc(C(F)(F)F)c1)C(=O)N1CCc2cc(Cl)ccc2C1C1CCC(C(=O)O)C1` (stereo partly drawn) [Compound A96, 3-(6-chloro-2-{[(2R,3S)-2-propyl-1-{[3-(trifluoromethyl)pyridin-2-yl]carbonyl}-3-{[5-(trifluoromethyl)thiophen-3-yl]oxy}piperidin-3-yl]carbonyl}-1,2,3,4-tetrahydroisoquinolin-1-yl)cyclopentanecarboxylic acid] had an IC50 of 0.001 to 0.1 µM.

`CCC[C@H]1N(C(=O)c2ncccc2C(F)(F)F)CCC[C@@]1(Oc1csc(C(F)(F)F)c1)C(=O)N1CCc2cc(F)ccc2C1C(=O)N1CCN(CCO)CC1` (stereo partly drawn) [Compound A93, 2-{4-[(6-fluoro-2-{[(2R,3S)-2-propyl-1-{[3-(trifluoromethyl)pyridin-2-yl]carbonyl}-3-{[5-(trifluoromethyl)thiophen-3-yl]oxy}piperidin-3-yl]carbonyl}-1,2,3,4-tetrahydroisoquinolin-1-yl)carbonyl]piperazin-1-yl}ethanol] displayed an IC50 of 0.001 to 0.1 µM.

For `CCC[C@H]1N(C(=O)c2ncccc2C(F)(F)F)CCC[C@@]1(Oc1csc(C(F)(F)F)c1)C(=O)N1Cc2ccc(Cl)cc2C[C@@H]1C[C@H](O)C(=O)O` [Compound A164, (2S)-3-[(3R)-6-chloro-2-{[(2R,3S)-2-propyl-1-{[3-(trifluoromethyl)pyridin-2-yl]carbonyl}-3-{[5-(trifluoromethyl)thiophen-3-yl]oxy}piperidin-3-yl]carbonyl}-1,2,3,4-tetrahydroisoquinolin-3-yl]-2-hydroxypropanoic acid], the half-maximal inhibitory concentration (IC50) fell in the range of 0.001 to 0.1 µM.

Compound `CCC[C@H]1N(C(=O)c2ncccc2C(F)(F)F)CCC[C@@]1(Oc1csc(C(F)(F)F)c1)C(=O)N1CCc2cc(Cl)ccc2C1CC(C(=O)O)C(C)C` (stereo partly drawn) [Compound A179, 2-[(6-chloro-2-{[(2R,3S)-2-propyl-1-{[3-(trifluoromethyl)pyridin-2-yl]carbonyl}-3-{[5-(trifluoromethyl)thiophen-3-yl]oxy}piperidin-3-yl]carbonyl}-1,2,3,4-tetrahydroisoquinolin-1-yl)methyl]-3-methylbutanoic acid] had an IC50 of 0.001 to 0.1 µM.

Turning to `CCC[C@H]1N(C(=O)c2ncccc2C(F)(F)F)CCC[C@@]1(Oc1csc(C(F)(F)F)c1)C(=O)N1CCc2cc(Cl)ccc2[C@H]1CCC(=O)N1CCC(C(=O)O)CC1` [Compound A98, 1-{3-[(1R)-6-chloro-2-{[(2R,3S)-2-propyl-1-{[3-(trifluoromethyl)pyridin-2-yl]carbonyl}-3-{[5-(trifluoromethyl)thiophen-3-yl]oxy}piperidin-3-yl]carbonyl}-1,2,3,4-tetrahydroisoquinolin-1-yl]propanoyl}piperidine-4-carboxylic acid], the IC50 was in the range of 0.001 to 0.1 µM.

`CCC[C@H]1N(C(=O)c2ncccc2C(F)(F)F)CCC[C@@]1(Oc1csc(C(F)(F)F)c1)C(=O)N1CCc2cc(Cl)ccc2C1CC(=O)N1CCC(O)CC1` (stereo partly drawn) [Compound A85, 1-[(6-chloro-2-{[(2R,3S)-2-propyl-1-{[3-(trifluoromethyl)pyridin-2-yl]carbonyl}-3-{[5-(trifluoromethyl)thiophen-3-yl]oxy}piperidin-3-yl]carbonyl}-1,2,3,4-tetrahydroisoquinolin-1-yl)acetyl]piperidin-4-ol]: the IC50 was in the range of 0.001 to 0.1 µM.

With `CCC[C@H]1N(C(=O)c2ncccc2C(F)(F)F)CCC[C@@]1(Oc1csc(C(F)(F)F)c1)C(=O)N1CCc2cc(F)ccc2C1CCC(=O)O` (stereo partly drawn) [Compound A42, 3-(6-fluoro-2-{[(2R,3S)-2-propyl-1-{[3-(trifluoromethyl)pyridin-2-yl]carbonyl}-3-{[5-(trifluoromethyl)thiophen-3-yl]oxy}piperidin-3-yl]carbonyl}-1,2,3,4-tetrahydroisoquinolin-1-yl)propanoic acid], the IC50 lay within 0.001 to 0.1 µM.

Take `O=C(c1ncccc1C(F)(F)F)N1CCC[C@@](Oc2csc(C(F)(F)F)c2)(C(=O)N2CCc3cc(Cl)ccc3C2)[C@H]1CCN1CCN(CC2CC2)CC1` [Compound A116, 6-chloro-2-{[(2R,3S)-2-{2-[4-(cyclopropylmethyl)piperazin-1-yl]ethyl}-1-{[3-(trifluoromethyl)pyridin-2-yl]carbonyl}-3-{[5-(trifluoromethyl)thiophen-3-yl]oxy}piperidin-3-yl]carbonyl}-1,2,3,4-tetrahydroisoquinoline]: the IC50 lay in the range of 0.001 to 0.1 µM.

`COCCN1CCN(CC[C@H]2N(C(=O)c3ncccc3C(F)(F)F)CCC[C@@]2(Oc2csc(C(F)(F)F)c2)C(=O)N2CCc3cc(Cl)ccc3C2)CC1` [Compound A118, 6-chloro-2-{[(2R,3S)-2-{2-[4-(2-methoxyethyl)piperazin-1-yl]ethyl}-1-{[3-(trifluoromethyl)pyridin-2-yl]carbonyl}-3-{[5-(trifluoromethyl)thiophen-3-yl]oxy}piperidin-3-yl]carbonyl}-1,2,3,4-tetrahydroisoquinoline] came in with an IC50 of 0.001 to 0.1 µM.

Compound `CCC[C@H]1N(C(=O)c2ncccc2C(F)(F)F)CCC[C@@]1(Oc1csc(C(F)(F)F)c1)C(=O)N1Cc2ccc(Cl)cc2C[C@H]1CCC(=O)O` [Compound A143, 3-[(3R)-6-chloro-2-{[(2R,3S)-2-propyl-1-{[3-(trifluoromethyl)pyridin-2-yl]carbonyl}-3-{[5-(trifluoromethyl)thiophen-3-yl]oxy}piperidin-3-yl]carbonyl}-1,2,3,4-tetrahydroisoquinolin-3-yl]propanoic acid] gave a 50% inhibitory concentration (IC50) of 0.001 to 0.1 µM.

Turning to `COCC1c2ccc(Cl)cc2CCN1C(=O)[C@]1(Oc2csc(C(F)(F)F)c2)CCCN(C(=O)c2ncccc2C(F)(F)F)[C@@H]1CCN1CCC(CCO)CC1` (stereo partly drawn) [Compound A20, 2-(1-{2-[(2R,3S)-3-{[6-chloro-1-(methoxymethyl)-3,4-dihydroisoquinolin-2(1H)-yl]carbonyl}-1-{[3-(trifluoromethyl)pyridin-2-yl]carbonyl}-3-{[5-(trifluoromethyl)thiophen-3-yl]oxy}piperidin-2-yl]ethyl}piperidin-4-yl)ethanol], the IC50 is 0.001 to 0.1 µM.

As to `CCC[C@H]1N(C(=O)c2ncccc2C(F)(F)F)CCC[C@@]1(Oc1csc(C(F)(F)F)c1)C(=O)N1CCc2cc(Br)ccc2C1CCC(=O)O` (stereo partly drawn) [Compound A57, 3-(6-bromo-2-{[(2R,3S)-2-propyl-1-{[3-(trifluoromethyl)pyridin-2-yl]carbonyl}-3-{[5-(trifluoromethyl)thiophen-3-yl]oxy}piperidin-3-yl]carbonyl}-1,2,3,4-tetrahydroisoquinolin-1-yl)propanoic acid], the 50% inhibitory concentration (IC50) was 0.001 to 0.1 µM.

Broadly, the IC50 is the concentration at which inhibition is half-maximal. Read a high IC50 as lower potency.
